pIC50: −log10 of the molar value.
Columns and labels:
[1] = KM-34 capacity to reduce DPPH radicals; type: biochemical
Method: FIG. 1. Percentage reduction of DPPH (100 μM) by KM-34 (5-400 μM) was determined by changing in the absorbance at 550 nm from a target containing only DPPH and vehicle (zero concentration of KM −34 or AA), after 30 minutes of reaction. Values are expressed as the mean ± SD (n=3). *P<0.05 with respect to the vehicle.
One of the most commonly used methods to estimate antioxidant activity is to evaluate the ability of different compounds to reduce DPPH radicals, which can be determined spectrophotometrically (Brand-Williams et al., 1995). […] Electron delocalization causes the intense violet coloration of the DPPH radical form when it is prepared in ethanol solution (Molyneux et al., 2004).
The IC 50 value obtained for KM was approximately 2.4 times lower than that obtained for ascorbic acid (AA) used as the reference compound.

PC12 cells [2] = assay: Cytoprotection against H2O2 damage in PC12 cells (MTT); type: cell-based
Method: FIG. 7. Cytoprotective effect of KM-34 (1-100 μM) against damage induced by H2O2 (150 μM) in cultures of PC12 cells. Viability (% live cells) was determined by the MTT assay. Cells were seeded at a density of 5×10^5 cells/mL in a 96-well plate. The KM-34 was added simultaneously to the addition of the H2O2 mixture. The culture was then allowed to incubate at 37° C, […] and 5% CO 2 for 4 hours. After this time the supernatant was removed and the cells were incubated with 20 μg of MTT for an additional 2 hours and the absorbance at 450 nm was measured with reference to 630 nm. The results are expressed as percentage of live cells relative to the control (undamaged cells, 100% live cells). The * represents significant differences (p<0.05) with respect to the H2O2 control.
FIG. 15. The survival rate for […] administered 150 μM H2O2 is shown. The control group was not administered 150 μM H2O2. The remaining four groups were administered 150 μM H2O2. The “H2O2 150 μM” group was not administered any compounds of the invention. The “JM 1 μM” group was administered 1 μM JM-20. The “KM 0.1 μM” group was administered 0.1 μM KM-34. The “JM 1 μM+KM 0.1 μM” group was administered 1 μM JM-20 and 0.1 μM KM-34.
H2O2 is formed in vivo spontaneously or enzymatically. At low concentrations this may be poorly reactive, however at high concentrations it may interact with and generate inactivation of the energy generating systems of the cells. In addition H2O2 is able to oxidize —SH groups of proteins and cause DNA strand rupture. Their most damaging effect is the formation of catalyzed transition metals by the Fenton-Habber-Weiss reaction (Martinez, 2005). This is based on the use of H2O2 in this test, with the aim of observing if the KM-34 is capable of reversing the damages caused by the chemical agent.

PC12 cells [3] = assay: Cytoprotection against FeSO4/AA damage in PC12 cells (MTT); type: cell-based
Method: FIG. 8. Cytoprotective effect of KM-34 (0.001-10 μM) against damage induced by FeSO4 (5 mmol/L) and ascorbic acid (AA, 2 mmol/L) in cultures of PC12 cells. Viability 1% live cells) was determined by the MTT assay. Cells were seeded at a density of 5×10^5 cells/mL in a 96-well plate. The KM-34 was added simultaneously to the addition of the mixture of FeSO 4 and AA. The culture was then allowed to incubate at 37° C, […] and 5% CO 2 for 4 hours. After this time the supernatant was removed and the cells were incubated with 20 μg of MTT for a further 2 hours and the absorbance at 450 nm was measured with reference to 630 nm. The results are expressed as percentage of live cells relative to the control (undamaged cells, 100% live cells. *Represents significant differences (p<0.05) with respect to FeSO4/AA control.
The FeSO4/AA system is a strong catalyst for oxidative reactions in cells such as PC12 leading to their death (Hiroi et al., 2005; Núñez et al., 2011). […] At concentrations greater than 1 μM the % cell survival was greater than 90% (FIG. 8).

In the case of `CC1(C)OC(=O)C(=Cc2ccc(O)c(O)c2)C(=O)O1` [KM-34, 5-[(3,4-dihydroxyphenyl)methylidene]-2,2-dimethyl-1,3-dioxane-4,6-dione], the pIC50 ([1]; DPPH 100 μM, 30 minutes of reaction, read-out: IC50, reduction of DPPH radicals) was 4.79, the “IC50 of KM relative to ascorbic acid (times lower)” value ([1]; DPPH, AA as reference compound) was “approximately 2.4 times” and the “Concentration giving significant (p<0.05) inhibition of the DPPH radical vs vehicle” value ([1]; after 30 minutes of reaction) was “higher than 5 μM”. For the same compound, the DPPH reduction response ([1]; at concentrations above 50 μM) was “reached its maximum response”, the “Concentration achieving significant cellular survival against H2O2” value (PC12 cells [2]; 150 μM H2O2, 4 hours) was “higher than 5 μM” and the “% cell survival” value (PC12 cells [2]; 150 μM H2O2, concentrations higher than 50 μM) was roughly 90%. The Cellular survival response (PC12 cells [2]; 150 μM H2O2, from 25 μM KM-34) was “higher than 50%”, the “Concentration showing cytoprotective effects against FeSO4/AA” value (PC12 cells [3]; FeSO4 5 mmol/L and AA 2 mmol/L, 4 hours) was “higher than 0.001 μM” and the “Cells surviving oxidizing conditions” value (PC12 cells [3]; FeSO4/AA, concentrations between 0.01-10 μM) was 90 out of 100 cells. The “% cell survival” value (PC12 cells [3]; FeSO4/AA, concentrations greater than 1 μM) was “greater than 90%”.
